Where a name gives a salt, the structure may show the parent alone.
Key:
[1] = test system: Bone marrow-derived macrophages (BMDMs); experiment: LPS-nigericin inflammasome activation/pyroptosis in BMDMs; format: cell-based, mouse; details: for kinetic cell death: SYTOX orange, 0-6 hrs
Protocol: Human kidney cell line HEK293T was cultured in Dulbecco's modified Eagle's medium supplemented with 10% (v/v) fetal bovine serum, 100 U/ml penicillin and 100 µg/ml streptomycin. Human peripheral blood monocyte cell line, THP1 cells were cultured in RPMI-1640 medium supplemented with 10% (v/v) fetal bovine serum, 100 U/ml penicillin and 100 µg/ml streptomycin. For isolation of BMDMs, tibias and femurs were removed from wild type and GsdmD^−/− mice and bone marrow was flushed with complete DMEM-medium. Cells were plated in medium containing 20% (v/v) conditioned medium of L929 mouse fibroblasts cultured for 7 days at 37° C. in a humidified atmosphere of 5% C02. Medium was replaced every 3 days.
Conditioned media or serum was collected as indicated and IL-1β or TNF-α, were quantified by sandwich ELISA (R&D Systems).
Cells were plated, treated and incubated in phenol red free medium. Following treatment medium was collected and assessed for LDH release using the CytoTox96 non-radioactive cytotoxicity assay (Promega) as per manufacturer's instructions. Kinetic cell death assays were performed using SytoxOrange and the Biotek Cytation5.
For noncanonical inflammasome activation, cells were primed with […] Pam3CSK4 (Invivogen) for 2 h, followed by transfection of LPS (2 μg/ml) using Lipofectamine 2000 for 16 hours.
Primary BMDMs from WT or GsdmD^−/− mice were cultured in 12-well plates (1×10^6 cells per ml; 1 ml) or 10 cm dishes (2×10^6 cells per ml; 10 ml). HEK293T cells (2.5×10^5 cells per ml; 3 ml) were cultured in 6-well plates and transfected with FLAG-tagged GSDMD constructs where indicated. For cell lysate analysis cells were lysed directly in 1× Lamelli sample buffer. For native gel analysis cells were lysed in NP-40 lysis buffer (50 mM Tris-HCl, pH 7.4, containing 150 mM NaCl, 0.5% (w/v) IgePal, 50 mM NaF, 1 mM Na3VO4, 1 mM dithiothreitol, 1 mM phenylmethylsulfonyl fluoride and protease inhibitor cocktail. For immunoprecipitation of GSDMD, cells were treated as indicated and then collected in 500 μl RIPA buffer, followed by incubation for 15 min on ice. Lysates were incubated with GSDMD antibody and protein A-protein G-agarose was added to each sample, followed by incubation overnight at 4° C. Immunoprecipitates were collected by centrifugation and washed four times with 1 ml of RIPA buffer. Immunprecipates were eluted from beads using 1× sample buffer. Samples were resolved by SDS-PAGE and stained using simply blue safe stain or transferred to nitrocellulose membranes and analyzed by immunoblot. Immunoreactivity was visualized by the Odyssey Imaging System (LICOR Biosciences). For immunoblotting of IL-1β in cell supernatants, conditioned medium was collected and filtered using filter spin columns to reduce salt and remove abundant serum proteins. Filtrates were added to 4×SDS-PAGE sample buffer and resolved by SDS-PAGE for immunoblot analysis. GSDMD (ab209845) and GSDME antibodies were from abcam (ab215191). Caspase 1 antibody was from adipogen. Fumarase antibody was from cell signalling and anti-β-actin (AC-15; A1978) were from Sigma; anti-mouse IRDye™ 680 (926-68070) and anti-rabbit IRDye™ 800 (926-32211) were from LI-COR Biosciences.
Numerous studies have shown that cell metabolism impacts inflammatory responses. LPS activated macrophages switch from oxidative phosphorylation to aerobic glycolysis. Krebs cycle intermediates such as succinate and itaconate accumulate and moonlight as positive and negative regulators of inflammatory gene expression (3-8). To determine if Krebs cycle intermediates modulate pyroptosis, we tested their effect on inflammasome responses. Bone marrow-derived macrophages (BMDMs) were primed with LPS (2 hr) before being exposed to metabolites and then exposed to nigericin (Nig) and inflammasome activation/pyroptosis measured. The metabolites were added after LPS to avoid any impact on transcription. […] Fumarate impaired kinetic cell death (0-6 hrs) (FIG. 1E, FIG. 5A). […]

CD14+ monocytes = experiment: LPS-Nig induced cell death and LDH release in primary CD14+ monocytes; format: cell-based, human; details: fumarate 25 μM
Protocol: FIGS. 6A-G. Fumarate inhibits pyroptosis in Human cells. (A-B) Representative images (A) and kinetic data (B) of SYTOX Orange and Hoechst-stained PMA-differentiated THP1 cells treated with LPS for 2 hours, DMSO (vehicle) or fumarate (25 μM) for 1 hour and nigericin (10 μM) for 6 hours. (C) LDH release from (A). (D-E) Kinetic cell death data of SYTOX Orange and Hoechst stained (D) or LDH assay of conditioned medium from primary CD14+ positive monocytes treated with LPS for 2 hours DMSO (vehicle) or fumarate (25 μM) for 1 hour and nigericin (10 μM) for 6 hours. (F) LC/MS quantification of fumarate in WT BMDMs treated with LPS for 2 hours, FHIN1 for 1 hour and nigericin for 1 hour. (G) Representative images of WT primary BMDMs stained with SYTOX Orange and Hoechst following treatment with LPS for 2 hours, DMSO (vehicle) or fumarate (25 μM) or FHIN1 (25 μM) for 1 hour and nigericin for a timecourse of 6 hours. A, B, D, G are representative of 3 independent experiments. C, E, F are pooled data from 3 independent experiments. ***, P<0.001, ****, P<0.00001 (Students t-test). Error bars show mean±SD (B, D) or SEM (C, E). Cells were plated, treated and incubated in phenol red free medium. Following treatment medium was collected and assessed for LDH release using the CytoTox96 non-radioactive cytotoxicity assay (Promega) as per manufacturer's instructions. […]

SMILES: COC(=O)/C=C/C(=O)OC [Fumarate, Dimethyl fumarate]
- GSDMD oligomerization ([1]; BMDMs pre-treated, LPS-Nig, native and reduced lysates): decreased
- LPS-Nig-induced release of LDH ([1]; WT BMDMs, LPS 2 hr, compound 1 hour (fumarate 25 μM), then nigericin): potently blocked
- LPS-Nig-induced release of IL-1β ([1]; WT BMDMs, LPS 2 hr, compound 1 hour (fumarate 25 μM), then nigericin, ELISA): potently blocked
- kinetic cell death ([1]; WT BMDMs, LPS-Nig): impaired
- kinetic cell death ([1]; WT BMDMs, LPS-Nig, listed as fumarate): inhibited cell death
- formation of GSDMD-N ([1]; WT BMDMs, LPS-Nig, immunoblot): blocked
- cell death when added after Nig treatment ([1]; WT BMDMs, fumarate 25 μM 15 minutes after each nigericin timepoint): impaired
- LPS-Nig induced LDH release (CD14+ monocytes): blocked
- LPS-Nig induced cell death (CD14+ monocytes; SYTOX Orange): blocked

Source: patent US20230233500A1, “Gasdermin D (GSDMD) Succination for the Treatment of Inflammatory Disease” (University of Massachusetts, priority 2020, published 2023)
